Measured values taken from PubChem BioAssay (NCI).
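Assay format: 96-well plates, 48-hour exposure. The concentration for full growth arrest is given as TGI.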

Experiments:
Test in all cases: NCI-60 cell line screen, 48 h
MCF7 breast = tested on: MCF7 breast
SNB-75 CNS = tested on: SNB-75 CNS
HCC-2998 colon = tested on: HCC-2998 colon
OVCAR-5 ovarian = tested on: OVCAR-5 ovarian
UACC-62 melanoma = tested on: UACC-62 melanoma
CAKI-1 renal = tested on: CAKI-1 renal
SF-268 CNS = tested on: SF-268 CNS
SK-MEL-2 melanoma = tested on: SK-MEL-2 melanoma
OVCAR-4 ovarian = tested on: OVCAR-4 ovarian
MDA-N = tested on: MDA-N
MDA-MB-435 = tested on: MDA-MB-435
KM12 colon = tested on: KM12 colon
U251 CNS = tested on: U251 CNS
786-0 renal = tested on: 786-0 renal
NCI/ADR-RES ovarian = tested on: NCI/ADR-RES ovarian
SR leukemia = tested on: SR leukemia
OVCAR-8 ovarian = tested on: OVCAR-8 ovarian
SK-MEL-28 melanoma = tested on: SK-MEL-28 melanoma
HCT-15 colon = tested on: HCT-15 colon
SF-295 CNS = tested on: SF-295 CNS
MDA-MB-231 breast = tested on: MDA-MB-231 breast
M14 melanoma = tested on: M14 melanoma
HCT-116 colon = tested on: HCT-116 colon
UACC-257 melanoma = tested on: UACC-257 melanoma
SK-OV-3 ovarian = tested on: SK-OV-3 ovarian
HOP-62 NSCLC = tested on: HOP-62 NSCLC
CCRF-CEM leukemia = tested on: CCRF-CEM leukemia
K-562 leukemia = tested on: K-562 leukemia
SF-539 CNS = tested on: SF-539 CNS
IGROV1 ovarian = tested on: IGROV1 ovarian
NCI-H23 lung = tested on: NCI-H23 lung
MALME-3M melanoma = tested on: MALME-3M melanoma
HOP-92 NSCLC = tested on: HOP-92 NSCLC
MOLT-4 leukemia = tested on: MOLT-4 leukemia
HT29 colon = tested on: HT29 colon
OVCAR-3 ovarian = tested on: OVCAR-3 ovarian
COLO 205 colon = tested on: COLO 205 colon
EKVX NSCLC = tested on: EKVX NSCLC
RXF 393 renal = tested on: RXF 393 renal
PC-3 prostate = tested on: PC-3 prostate
NCI-H226 lung = tested on: NCI-H226 lung
SN12C renal = tested on: SN12C renal
T-47D breast = tested on: T-47D breast
SW-620 colon = tested on: SW-620 colon
LOX IMVI melanoma = tested on: LOX IMVI melanoma
RPMI-8226 leukemia = tested on: RPMI-8226 leukemia
ACHN renal = tested on: ACHN renal
A549 NSCLC = tested on: A549 NSCLC
SNB-19 CNS = tested on: SNB-19 CNS
HS 578T breast = tested on: HS 578T breast
BT-549 breast = tested on: BT-549 breast
TK-10 renal = tested on: TK-10 renal
DU-145 prostate = tested on: DU-145 prostate
NCI-H522 lung = tested on: NCI-H522 lung
NCI-H460 lung = tested on: NCI-H460 lung
SK-MEL-5 melanoma = tested on: SK-MEL-5 melanoma
UO-31 renal = tested on: UO-31 renal

SMILES: CCN(CC)CCC(=O)c1ccc(Oc2ccc(C)cc2)cc1
- TGI (MCF7 breast): 32.9 µM
- TGI (SNB-75 CNS): 35.7 µM
- TGI (HCC-2998 colon): 36.2 µM
- TGI (OVCAR-5 ovarian): 41 µM
- TGI (UACC-62 melanoma): 31.3 µM
- TGI (CAKI-1 renal): 31.1 µM
- TGI (SF-268 CNS): 33.8 µM
- TGI (SK-MEL-2 melanoma): > 100 µM
- TGI (OVCAR-4 ovarian): 55.3 µM
- TGI (MDA-N): 31.5 µM
- TGI (MDA-MB-435): 32 µM
- TGI (KM12 colon): 23.9 µM
- TGI (U251 CNS): 30.7 µM
- TGI (786-0 renal): 30.1 µM
- TGI (NCI/ADR-RES ovarian): 51.2 µM
- TGI (SR leukemia): > 100 µM
- TGI (OVCAR-8 ovarian): 39.4 µM
- TGI (SK-MEL-28 melanoma): 30.5 µM
- TGI (HCT-15 colon): 33.8 µM
- TGI (SF-295 CNS): 36.4 µM
- TGI (MDA-MB-231 breast): 31 µM
- TGI (M14 melanoma): 31.9 µM
- TGI (HCT-116 colon): 31.2 µM
- TGI (UACC-257 melanoma): 34.4 µM
- TGI (SK-OV-3 ovarian): 88.7 µM
- TGI (HOP-62 NSCLC): 39.3 µM
- TGI (CCRF-CEM leukemia): 89.7 µM
- TGI (K-562 leukemia): > 100 µM
- TGI (SF-539 CNS): 33.1 µM
- TGI (IGROV1 ovarian): 35.7 µM
- TGI (NCI-H23 lung): 34.8 µM
- TGI (MALME-3M melanoma): 33.7 µM
- TGI (HOP-92 NSCLC): 39.3 µM
- TGI (MOLT-4 leukemia): 60.7 µM
- TGI (HT29 colon): 35.6 µM
- TGI (OVCAR-3 ovarian): 32.4 µM
- TGI (COLO 205 colon): 45.1 µM
- TGI (EKVX NSCLC): 38.2 µM
- TGI (RXF 393 renal): 30.2 µM
- TGI (PC-3 prostate): 38.2 µM
- TGI (NCI-H226 lung): 86.8 µM
- TGI (SN12C renal): 30.4 µM
- TGI (T-47D breast): 40.2 µM
- TGI (SW-620 colon): 33.8 µM
- TGI (LOX IMVI melanoma): 31 µM
- TGI (RPMI-8226 leukemia): 65.9 µM
- TGI (ACHN renal): 38.1 µM
- TGI (A549 NSCLC): > 100 µM
- TGI (SNB-19 CNS): 33.3 µM
- TGI (HS 578T breast): 44.6 µM
- TGI (BT-549 breast): 32.7 µM
- TGI (TK-10 renal): 32.5 µM
- TGI (DU-145 prostate): 95.3 µM

SMILES: CC1=C(C(=O)OCCc2ccc([N+](=O)[O-])cc2)C(c2ccccc2C(F)(F)F)C(C(=O)OC(C)C)=C(C)N1 (centres undefined)
- TGI (MCF7 breast): > 100 µM
- TGI (SNB-75 CNS): > 100 µM
- TGI (HCC-2998 colon): > 100 µM
- TGI (OVCAR-5 ovarian): > 100 µM
- TGI (UACC-62 melanoma): 36.5 µM
- TGI (CAKI-1 renal): > 100 µM
- TGI (SF-268 CNS): > 100 µM
- TGI (NCI-H522 lung): 7.5 µM
- TGI (SK-MEL-2 melanoma): 7.16 µM
- TGI (OVCAR-4 ovarian): > 100 µM
- TGI (MDA-N): > 100 µM
- TGI (NCI-H460 lung): > 100 µM
- TGI (MDA-MB-435): > 100 µM
- TGI (KM12 colon): 31 µM
- TGI (U251 CNS): > 100 µM
- TGI (786-0 renal): > 100 µM
- TGI (NCI/ADR-RES ovarian): > 100 µM
- TGI (SR leukemia): > 100 µM
- TGI (OVCAR-8 ovarian): > 100 µM
- TGI (SK-MEL-28 melanoma): > 100 µM
- TGI (HCT-15 colon): > 100 µM
- TGI (SK-MEL-5 melanoma): 3.09 µM
- TGI (SF-295 CNS): > 100 µM
- TGI (MDA-MB-231 breast): > 100 µM
- TGI (M14 melanoma): 16.2 µM
- TGI (HCT-116 colon): > 100 µM
- TGI (UACC-257 melanoma): > 100 µM
- TGI (SK-OV-3 ovarian): 30.6 µM
- TGI (HOP-62 NSCLC): > 100 µM
- TGI (CCRF-CEM leukemia): > 100 µM
- TGI (K-562 leukemia): > 100 µM
- TGI (SF-539 CNS): > 100 µM
- TGI (IGROV1 ovarian): > 100 µM
- TGI (NCI-H23 lung): > 100 µM
- TGI (MALME-3M melanoma): 28.5 µM
- TGI (MOLT-4 leukemia): 7.95 µM
- TGI (HT29 colon): > 100 µM
- TGI (OVCAR-3 ovarian): > 100 µM
- TGI (COLO 205 colon): 16.3 µM
- TGI (EKVX NSCLC): 6.51 µM
- TGI (RXF 393 renal): 7.34 µM
- TGI (PC-3 prostate): > 100 µM
- TGI (NCI-H226 lung): 21.5 µM
- TGI (UO-31 renal): > 100 µM
- TGI (SN12C renal): 26.7 µM
- TGI (T-47D breast): > 100 µM
- TGI (SW-620 colon): > 100 µM
- TGI (LOX IMVI melanoma): > 100 µM
- TGI (RPMI-8226 leukemia): > 100 µM
- TGI (ACHN renal): > 100 µM
- TGI (A549 NSCLC): > 100 µM
- TGI (SNB-19 CNS): > 100 µM
- TGI (HS 578T breast): 61.6 µM
- TGI (BT-549 breast): > 100 µM
- TGI (TK-10 renal): > 100 µM
- TGI (DU-145 prostate): > 100 µM
